Reference: patent publication US20060069123A1, “Substituted dipiperidine CCR2 antagonists” (priority 2004, published 2006)
Like-named read-outs stand apart in the source and are kept apart here.

Key:
[1] = tested on: THP-1 cells; assay: MCP-1 Induced Chemotaxis in THP-1 Cells; type: cell-based; details: Homo sapiens, THP-1 cells, MCP-1 0.01 μg/mL, 3 hours, read-out: Inhibition of MCP-1 Induced Chemotaxis IC50
Protocol: MCP-1 Induced Chemotaxis in THP-1 Cells
MCP-1 induced chemotaxis was run in a 24-well chemotaxis chamber. MCP-1 (0.01 μg/mL) was added to the lower chamber and 100 μL of THP-1 cells (1×10^7 cell/mL) was added to the top chamber. Varying concentrations of test compound were added to the top and bottom chambers. Cells were allowed to chemotax for 3 hours at 37° C. and 5% CO2. An aliquot of the cells that had migrated to the bottom chamber was taken and counted then compared to vehicle.

[2] = target: T1, CCR2 (Homo sapiens, UniProt P41597)
T1 sequence (P41597 1-360 isoform P41597-2): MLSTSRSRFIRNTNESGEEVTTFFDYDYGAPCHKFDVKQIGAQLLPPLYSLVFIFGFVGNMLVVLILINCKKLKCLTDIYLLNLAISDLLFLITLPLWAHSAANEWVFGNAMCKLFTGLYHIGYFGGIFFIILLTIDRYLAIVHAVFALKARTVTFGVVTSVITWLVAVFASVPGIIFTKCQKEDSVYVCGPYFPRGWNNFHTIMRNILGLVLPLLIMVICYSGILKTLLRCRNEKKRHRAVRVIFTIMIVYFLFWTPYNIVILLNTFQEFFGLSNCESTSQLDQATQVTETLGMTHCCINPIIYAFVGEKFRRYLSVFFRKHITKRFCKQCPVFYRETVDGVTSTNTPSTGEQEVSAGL

In the case of COc1ccc(C2CCN(C(C(=O)O)C3CCN(C(=O)/C=C/c4cc(F)cc(F)c4)CC3)CC2)cc1 (centres unmarked) [Cpd 2, {1-[(2E)-3-(3,5-difluoro-phenyl)-acryloyl]-piperidin-4-yl}-[4-(4-methoxy-phenyl)-piperidin-1-yl]-acetic acid], the IC50 [1] is reported as 1810 nM and the IC50 [2] is reported as 1830 nM.
In the case of O=C(O)C(C1CCN(C(=O)/C=C/c2cc(F)cc(F)c2)CC1)N1CCC(c2c[nH]c3ccc(O)cc23)CC1 (centres unmarked) [Cpd 16, {1-[(2E)-3-(3,5-difluoro-phenyl)-acryloyl]-piperidin-4-yl}-[4-(5-hydroxy-1H-indol-3-yl)-piperidin-1-yl]-acetic acid], the IC50 [1] is reported as 20 nM.
With CC(=O)Nc1ccc2[nH]cc(C3CCN(C(C(=O)O)C4CCN(C(=O)/C=C/c5cc(F)c(F)c(F)c5)CC4)CC3)c2c1 (centres unmarked) [Cpd 17, [4-(5-acetylamino-1H-indol-3-yl)-piperidin-1-yl]-{1-[(2E)-3-(3,4,5-trifluoro-phenyl)-acryloyl]-piperidin-4-yl}-acetic acid] the IC50 [1] was 20 nM and the IC50 [2] was 160 nM.
With O=C(O)C(C1CCN(C(=O)/C=C/c2ccc(Cl)c(Cl)c2)CC1)N1CCC(c2c[nH]c3ccc(F)cc23)CC1 (centres unmarked) [Cpd 19, {1-[(2E)-3-(3,4-dichloro-phenyl)-acryloyl]-piperidin-4-yl}-[4-(5-fluoro-1H-indol-3-yl)-piperidin-1-yl]-acetic acid] the IC50 [1] was 4 nM.
Compound O=C(O)C(C1CCN(C(=O)/C=C/c2ccc(F)c(F)c2)CC1)N1CCC(c2c[nH]c3ccccc23)CC1 (centres unmarked) [Cpd 22, {1-[(2E)-3-(3,4-difluoro-phenyl)-acryloyl]-piperidin-4-yl}-[4-(1H-indol-3-yl)-piperidin-1-yl]-acetic acid] has an IC50 [1] of 4 nM.
With O=C(O)C(C1CCN(C(=O)/C=C/c2cc(F)cc(F)c2)CC1)N1CCC(c2c[nH]c3cc(F)ccc23)CC1 (centres unmarked) [Cpd 24, {1-[(2E)-3-(3,5-difluoro-phenyl)-acryloyl]-piperidin-4-yl}-[4-(6-fluoro-1H-indol-3-yl)-piperidin-1-yl]-acetic acid] the IC50 [1] was 0.7 nM and the IC50 [2] was 10 nM.
O=C(O)C(C1CCN(C(=O)/C=C/c2cc(F)cc(F)c2)CC1)N1CCC(c2c[nH]c3cc(Cl)ccc23)CC1 (centres unmarked) [Cpd 25, [4-(6-chloro-1H-indol-3-yl)-piperidin-1-yl]-{1-[(2E)-3-(3,5-difluoro-phenyl)-acryloyl]-piperidin-4-yl}-acetic acid] showed an IC50 [1] of 10 nM.
COc1ccc2[nH]cc(C3CCN(C(C(=O)O)C4CCN(C(=O)/C=C/c5cc(F)cc(F)c5)CC4)CC3)c2c1 (centres unmarked) [Cpd 26, {1-[(2E)-3-(3,5-difluoro-phenyl)-acryloyl]-piperidin-4-yl}-[4-(5-methoxy-1H-indol-3-yl)-piperidin-1-yl]-acetic acid] was tested, and the IC50 [1] was 30 nM.
Work on O=C(O)C(C1CCN(C(=O)Nc2cc(F)cc(F)c2)CC1)N1CCC(c2c[nH]c3ccccc23)CC1 (centres unmarked) [Cpd 28, [1-(3,5-difluoro-phenylcarbamoyl)-piperidin-4-yl]-[4-(1H-indol-3-yl)-piperidin-1-yl]-acetic acid] yielded an IC50 [1] of 430 nM and an IC50 [2] of 100 nM.
For CS(=O)(=O)Nc1ccc2[nH]cc(C3CCN(C(C(=O)O)C4CCN(C(=O)/C=C/c5cc(F)cc(F)c5)CC4)CC3)c2c1 (centres unmarked) [Cpd 29, {1-[(2E)-3-(3,5-difluoro-phenyl)-acryloyl]-piperidin-4-yl}-[4-(5-methanesulfonylamino-1H-indol-3-yl)-piperidin-1-yl]-acetic acid], the IC50 [1] was 0.4 nM and the IC50 [2] was 24 nM.
With O=C(O)C(C1CCN(C(=O)/C=C/c2ccc(Cl)cc2)CC1)N1CCC(c2c[nH]c3ccccc23)CC1 (centres unmarked) [Cpd 34, {1-[(2E)-3-(4-chloro-phenyl)-acryloyl]-piperidin-4-yl}-[4-(1H-indol-3-yl)-piperidin-1-yl]-acetic acid] the IC50 [1] was 6 nM and the IC50 [2] was 10 nM.
O=C(O)C(C1CCN(C(=O)/C=C/c2cccc(C(F)(F)F)c2)CC1)N1CCC(c2c[nH]c3ccccc23)CC1 (centres unmarked) [Cpd 35, [4-(1H-indol-3-yl)-piperidin-1-yl]-{1-[(2E)-3-(3-trifluoromethyl-phenyl)-acryloyl]-piperidin-4-yl}-acetic acid] showed an IC50 [1] of 30 nM and an IC50 [2] of 8 nM.
Work on O=C(O)C(C1CCN(C(=O)/C=C/c2ccc(F)c(Br)c2)CC1)N1CCC(c2c[nH]c3ccccc23)CC1 (centres unmarked) [Cpd 36, {1-[(2E)-3-(3-bromo-4-fluoro-phenyl)-acryloyl]-piperidin-4-yl}-[4-(1H-indol-3-yl)-piperidin-1-yl]-acetic acid] yielded an IC50 [1] of 0.4 nM and an IC50 [2] of 8 nM.
COc1ccc2c(C3CCN(C(C(=O)O)C4CCN(C(=O)/C=C/c5cc(F)cc(F)c5)CC4)CC3)c[nH]c2c1 (centres unmarked) [Cpd 38, {1-[(2E)-3-(3,5-difluoro-phenyl)-acryloyl]-piperidin-4-yl}-[4-(6-methoxy-1H-indol-3-yl)-piperidin-1-yl]-acetic acid] gave an IC50 [1] of 4 nM and an IC50 [2] of 20 nM.
In the case of O=C(O)C(C1CCN(C(=O)/C=C/c2ccc(Cl)c(Cl)c2)CC1)N1CCC(c2c[nH]c3cc(F)ccc23)CC1 (centres unmarked) [Cpd 39, {1-[(2E)-3-(3,4-dichloro-phenyl)-acryloyl]-piperidin-4-yl}-[4-(6-fluoro-1H-indol-3-yl)-piperidin-1-yl]-acetic acid], the IC50 [1] is reported as 1.9 nM and the IC50 [2] is reported as 2 nM.
Work on O=C(O)C(C1CCN(C(=O)Nc2ccc(F)c(F)c2)CC1)N1CCC(c2c[nH]c3ccccc23)CC1 (centres unmarked) [Cpd 40, [1-(3,4-difluoro-phenylcarbamoyl)-piperidin-4-yl]-[4-(1H-indol-3-yl)-piperidin-1-yl]-acetic acid] yielded an IC50 [1] of 30 nM.
Compound COc1cccc2[nH]cc(C3CCN(C(C(=O)O)C4CCN(C(=O)/C=C/c5cc(F)cc(F)c5)CC4)CC3)c12 (centres unmarked) [Cpd 41, {1-[(2E)-3-(3,5-difluoro-phenyl)-acryloyl]-piperidin-4-yl}-[4-(4-methoxy-1H-indol-3-yl)-piperidin-1-yl]-acetic acid] has an IC50 [1] of 40 nM and an IC50 [2] of 14 nM.
COc1cccc2c(C3CCN(C(C(=O)O)C4CCN(C(=O)/C=C/c5cc(F)cc(F)c5)CC4)CC3)c[nH]c12 (centres unmarked) [Cpd 42, {1-[(2E)-3-(3,5-difluoro-phenyl)-acryloyl]-piperidin-4-yl}-[4-(7-methoxy-1H-indol-3-yl)-piperidin-1-yl]-acetic acid] showed an IC50 [1] of 0.8 nM.
O=C(O)C(C1CCN(C(=O)/C=C/c2ccc(Cl)c(Cl)c2)CC1)N1CCC(c2c[nH]c3cc(Cl)ccc23)CC1 (centres unmarked) [Cpd 46, [4-(6-chloro-1H-indol-3-yl)-piperidin-1-yl]-{1-[(2E)-3-(3,4-dichloro-phenyl)-acryloyl]-piperidin-4-yl}-acetic acid] gave an IC50 [1] of 0.2 nM and an IC50 [2] of 1 nM.
O=C(O)C(C1CCN(C(=O)/C=C/c2ccc(Br)cc2)CC1)N1CCC(c2c[nH]c3ccccc23)CC1 (centres unmarked) [Cpd 60, {1-[(2E)-3-(4-bromo-phenyl)-acryloyl]-piperidin-4-yl}-[4-(1H-indol-3-yl)-piperidin-1-yl]-acetic acid] showed an IC50 [1] of 70 nM.
O=C(O)C(C1CCN(C(=O)/C=C/c2cccc(F)c2)CC1)N1CCC(c2c[nH]c3ccccc23)CC1 (centres unmarked) [Cpd 62, {1-[(2E)-3-(3-fluoro-phenyl)-acryloyl]-piperidin-4-yl}-[4-(1H-indol-3-yl)-piperidin-1-yl]-acetic acid] was tested, and the IC50 [1] was 180 nM.
Work on COc1cccc(/C=C/C(=O)N2CCC(C(C(=O)O)N3CCC(c4c[nH]c5ccccc45)CC3)CC2)c1 (centres unmarked) [Cpd 72, [4-(1H-indol-3-yl)-piperidin-1-yl]-{1-[(2E)-3-(3-methoxy-phenyl)-acryloyl]-piperidin-4-yl}-acetic acid] yielded an IC50 [1] of 30 nM.
For CS(=O)(=O)Nc1ccc2c(C3CCN(C(C(=O)O)C4CCN(C(=O)/C=C/c5cc(F)c(F)c(F)c5)CC4)CC3)c[nH]c2c1 (centres unmarked) [Cpd 82], the IC50 ([1]; THP-1, 3 h) was 210 nM.
